pIC50: −log10 of the molar value.
Key:
[1] = biological target: Ephrin type-A receptor 2 (Homo sapiens, UniProt P29317); experiment: Inhibition of recombinant human GST-tagged EPHA2 cytoplasmic domain expressed in baculovirus expression system using tyrosine-01 peptide as substrate incubated for 60 mins in presence of ATP by Z'-Lyte assay
[2] = biological target: Cannabinoid receptor 1 (Homo sapiens) (UniProt P21554); experiment: Inhibition of human CB1 receptor at 10 uM relative to control
[3] = biological target: Serine/threonine-protein kinase MRCK alpha (Homo sapiens, UniProt Q5VT25); experiment: Inhibition of recombinant human His-tagged MRCKalpha catalytic domain (1 to 473 residues) expressed in baculovirus expression system using serine/threonine-13 peptide as substrate incubated for 60 mins in presence of ATP by Z'-LYTE assay
[4] = biological target: Interleukin-1 receptor-associated kinase 4 (Homo sapiens, UniProt Q9NWZ3); experiment: Inhibition of recombinant full length human His-tagged IRAK4 expressed in baculovirus expression system using serine/threonine-7 peptide as substrate incubated for 60 mins in presence of ATP by Z'-LYTE assay
[5] = biological target: Angiopoietin-1 receptor (Homo sapiens, UniProt Q02763); experiment: Inhibition of recombinant human GST-tagged TIE2 (817 to 1101 residues) expressed in baculovirus expression system using tyrosine-5 peptide as substrate incubated for 60 mins in presence of ATP by Z'-LYTE assay
[6] = Protein binding in rat plasma at 0.5 mg/kg, iv or 1 mg/kg, po; type: ADME, organism-based; settings: read-out: PPB (converted)
[7] = biological target: Phosphatidylinositol 4,5-bisphosphate 3-kinase catalytic subunit gamma isoform (Homo sapiens, UniProt P48736); experiment: Inhibition of His-tagged recombinant human full length PI3K p110gamma expressed in baculovirus expression system using PIP2:PS lipid as substrate incubated for 1 hr in presence of ATP by Adapta assay
Chain of Phosphatidylinositol 4,5-bisphosphate 3-kinase catalytic subunit gamma isoform (P48736 whole entry, canonical isoform): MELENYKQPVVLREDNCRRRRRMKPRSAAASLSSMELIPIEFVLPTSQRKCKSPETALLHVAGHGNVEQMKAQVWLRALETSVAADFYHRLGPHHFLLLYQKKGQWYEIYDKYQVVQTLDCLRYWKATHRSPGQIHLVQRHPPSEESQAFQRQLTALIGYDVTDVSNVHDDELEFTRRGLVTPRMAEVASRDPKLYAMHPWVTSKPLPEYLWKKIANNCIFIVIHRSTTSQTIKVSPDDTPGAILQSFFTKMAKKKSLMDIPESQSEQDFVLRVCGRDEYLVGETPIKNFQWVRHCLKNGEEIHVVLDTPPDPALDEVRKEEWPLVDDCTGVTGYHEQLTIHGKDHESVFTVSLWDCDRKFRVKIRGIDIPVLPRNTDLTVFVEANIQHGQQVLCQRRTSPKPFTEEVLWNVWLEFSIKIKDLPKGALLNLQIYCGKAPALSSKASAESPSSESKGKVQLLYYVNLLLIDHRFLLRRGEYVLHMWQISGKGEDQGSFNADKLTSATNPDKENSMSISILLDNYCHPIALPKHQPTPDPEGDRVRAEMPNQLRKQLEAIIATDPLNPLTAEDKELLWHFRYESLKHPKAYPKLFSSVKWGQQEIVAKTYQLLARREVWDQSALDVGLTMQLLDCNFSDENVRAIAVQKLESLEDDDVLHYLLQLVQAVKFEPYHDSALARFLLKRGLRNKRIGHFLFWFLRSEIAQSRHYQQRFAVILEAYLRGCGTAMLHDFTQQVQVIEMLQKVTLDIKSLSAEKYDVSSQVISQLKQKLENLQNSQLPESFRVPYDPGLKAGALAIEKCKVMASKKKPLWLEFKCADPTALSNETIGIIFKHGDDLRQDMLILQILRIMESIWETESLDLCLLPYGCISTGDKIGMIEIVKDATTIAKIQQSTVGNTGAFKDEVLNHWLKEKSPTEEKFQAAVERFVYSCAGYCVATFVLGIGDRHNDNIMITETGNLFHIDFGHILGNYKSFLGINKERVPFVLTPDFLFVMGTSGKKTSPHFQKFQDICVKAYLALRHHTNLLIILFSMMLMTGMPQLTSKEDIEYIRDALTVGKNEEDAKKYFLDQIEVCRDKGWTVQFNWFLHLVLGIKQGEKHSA

[8] = Distribution coefficient, logD of compound by HPLC analysis; type: physicochemical; settings: octanol/water
[9] = biological target: Histamine H4 receptor (Homo sapiens) (UniProt Q9H3N8); experiment: Inhibition of human histamine H4 receptor at 10 uM relative to control
[10] = biological target: Alpha-2B adrenergic receptor (Homo sapiens) (UniProt P18089); experiment: Displacement of [3H]rauwolscine from full-length recombinant human alpha2B receptor expressed in CHOK1 cells at 10 uM measured after 60 mins by scintillation counting method relative to control; type: cell-based; settings: CHO-K1
[11] = biological target: Tyrosine-protein kinase ABL1 (Homo sapiens, UniProt P00519, T315I); experiment: Inhibition of recombinant full length human His-tagged ABL1 T315I mutant cytoplasmic domain expressed in baculovirus expression system using tyrosine-2 peptide as substrate incubated for 60 mins in presence of ATP by Z'-LYTE assay
[12] = biological target: Tyrosine-protein kinase JAK2 (Homo sapiens, UniProt O60674); experiment: Inhibition of recombinant GST-tagged human JAK2-JH1/JH2 domain (574 to 1154 residues) expressed in baculovirus expression system using Tyr 06 as substrate after 1 hr in presence of ATP by Z'LYTE assay
[13] = biological target: Tyrosine-protein kinase Lyn (Homo sapiens, UniProt P07948); experiment: Inhibition of recombinant full length human GST-tagged LYN-A expressed in insect cells using tyrosine-2 peptide as substrate incubated for 60 mins in presence of ATP by Z'-LYTE assay
[14] = biological target: Serine/threonine-protein kinase 25 (Homo sapiens, UniProt O00506); experiment: Inhibition of recombinant full length human GST-tagged YSK1 expressed in baculovirus expression system using serine/threonine-7 peptide as substrate incubated for 60 mins in presence of ATP by Z'-LYTE assay
[15] = biological target: Serine/threonine-protein kinase B-raf (Homo sapiens, UniProt P15056); experiment: Inhibition of recombinant full length human GST-tagged BRAF expressed in baculovirus expression system using tyrosine-1 peptide as substrate incubated for 60 mins in presence of ATP by Z'-LYTE assay
[16] = biological target: Vascular endothelial growth factor receptor 1 (Homo sapiens, UniProt P17948); experiment: Inhibition of recombinant human GST-tagged FLT1 catalytic domain (781 to 1338 residues) expressed in baculovirus expression system using tyrosine-4 peptide as substrate incubated for 60 mins in presence of ATP by Z'-LYTE assay
[17] = biological target: Melanin-concentrating hormone receptor 1 (Homo sapiens) (UniProt Q99705); experiment: Displacement of [125I]Tyr-S36057 from full length human recombinant SLC1 receptor expressed in CHO-K1 cells at 10 uM measured after 120 mins by radiometric scintillation analysis relative to control; type: cell-based
[18] = biological target: Mitogen-activated protein kinase kinase kinase 9 (Homo sapiens, UniProt P80192); experiment: Inhibition of recombinant human GST-tagged MAP3K9 catalytic domain expressed in baculovirus expression system using serine/threonine-7 peptide as substrate incubated for 60 mins in presence of ATP by Z'-LYTE assay
Chain of Mitogen-activated protein kinase kinase kinase 9 (P80192 whole entry, the tested form may be a part): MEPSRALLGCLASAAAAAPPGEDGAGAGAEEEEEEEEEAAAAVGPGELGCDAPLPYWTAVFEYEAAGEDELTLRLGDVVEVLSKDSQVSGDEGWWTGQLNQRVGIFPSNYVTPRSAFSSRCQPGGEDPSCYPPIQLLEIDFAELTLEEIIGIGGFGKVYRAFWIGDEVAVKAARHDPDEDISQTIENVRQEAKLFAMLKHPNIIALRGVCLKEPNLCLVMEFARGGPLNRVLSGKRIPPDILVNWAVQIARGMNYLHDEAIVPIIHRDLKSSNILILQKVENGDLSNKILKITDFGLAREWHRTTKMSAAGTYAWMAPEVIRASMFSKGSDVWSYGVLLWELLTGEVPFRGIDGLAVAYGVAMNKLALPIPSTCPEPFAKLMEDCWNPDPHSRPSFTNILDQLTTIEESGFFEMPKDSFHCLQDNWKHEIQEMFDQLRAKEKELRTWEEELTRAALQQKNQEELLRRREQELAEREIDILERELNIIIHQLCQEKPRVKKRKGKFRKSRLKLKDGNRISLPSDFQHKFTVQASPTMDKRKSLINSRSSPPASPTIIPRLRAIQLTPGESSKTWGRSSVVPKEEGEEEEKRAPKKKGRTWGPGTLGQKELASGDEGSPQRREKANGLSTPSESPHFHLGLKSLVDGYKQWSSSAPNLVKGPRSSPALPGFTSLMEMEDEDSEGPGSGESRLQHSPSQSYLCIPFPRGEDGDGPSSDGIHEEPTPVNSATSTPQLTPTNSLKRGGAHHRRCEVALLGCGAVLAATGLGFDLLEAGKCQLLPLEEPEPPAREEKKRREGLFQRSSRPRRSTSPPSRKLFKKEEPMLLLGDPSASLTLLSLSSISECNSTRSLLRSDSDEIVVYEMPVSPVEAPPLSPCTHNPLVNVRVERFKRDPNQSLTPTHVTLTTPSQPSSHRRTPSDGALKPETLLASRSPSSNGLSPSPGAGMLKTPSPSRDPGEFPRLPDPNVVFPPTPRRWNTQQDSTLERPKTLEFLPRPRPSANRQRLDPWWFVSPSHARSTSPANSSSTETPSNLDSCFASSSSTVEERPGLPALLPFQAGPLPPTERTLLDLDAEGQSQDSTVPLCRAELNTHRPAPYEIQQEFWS

[19] = biological target: Platelet-derived growth factor receptor alpha (Homo sapiens, UniProt P16234, D842V); experiment: Inhibition of recombinant human GST-tagged PDGFRalpha D842V cytoplasmic domain expressed in baculovirus expression system using tyrosine-4 peptide as substrate incubated for 60 mins in presence of ATP by Z'-LYTE assay
[20] = biological target: 5-hydroxytryptamine receptor 1B (Rattus norvegicus) (UniProt P28564); experiment: Displacement of [125I]cyanopindolol from 5HT1B receptor in Wistar rat cerebral cortical membranes at 10 uM measured after 90 mins by radiometric scintillation analysis relative to control
Chain of 5-hydroxytryptamine receptor 1B (Rattus norvegicus) (P28564 whole entry): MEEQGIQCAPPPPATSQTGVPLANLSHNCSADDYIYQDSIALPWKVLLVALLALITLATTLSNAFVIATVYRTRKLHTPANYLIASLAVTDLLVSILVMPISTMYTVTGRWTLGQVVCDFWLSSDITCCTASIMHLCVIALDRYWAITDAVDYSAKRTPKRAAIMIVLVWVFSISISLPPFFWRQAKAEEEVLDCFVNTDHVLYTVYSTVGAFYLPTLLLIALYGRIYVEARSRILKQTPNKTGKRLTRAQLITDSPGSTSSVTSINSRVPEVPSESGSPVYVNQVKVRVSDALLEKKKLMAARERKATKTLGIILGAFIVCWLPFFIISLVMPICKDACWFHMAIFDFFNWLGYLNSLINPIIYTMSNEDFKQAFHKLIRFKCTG

[21] = biological target: CDK9/cyclin T1 (Homo sapiens, UniProt P50750); experiment: Inhibition of recombinant full length human His-tagged CDK9/CyclinT1 expressed in baculovirus expression system using CDK7/9tide peptide as substrate incubated for 60 mins in presence of ATP by Adapta assay
[22] = biological target: Retinoic acid receptor RXR-alpha (Homo sapiens) (UniProt P19793); experiment: Displacement of [3H]-9-cis-Retinoic acid from human recombinant RXRalpha receptor LBD domain expressed in Escherichia coli at 10 uM measured after 16 hrs by radiometric scintillation analysis relative to control
Chain of Retinoic acid receptor RXR-alpha (Homo sapiens) (P19793 whole entry, the tested form may be a part): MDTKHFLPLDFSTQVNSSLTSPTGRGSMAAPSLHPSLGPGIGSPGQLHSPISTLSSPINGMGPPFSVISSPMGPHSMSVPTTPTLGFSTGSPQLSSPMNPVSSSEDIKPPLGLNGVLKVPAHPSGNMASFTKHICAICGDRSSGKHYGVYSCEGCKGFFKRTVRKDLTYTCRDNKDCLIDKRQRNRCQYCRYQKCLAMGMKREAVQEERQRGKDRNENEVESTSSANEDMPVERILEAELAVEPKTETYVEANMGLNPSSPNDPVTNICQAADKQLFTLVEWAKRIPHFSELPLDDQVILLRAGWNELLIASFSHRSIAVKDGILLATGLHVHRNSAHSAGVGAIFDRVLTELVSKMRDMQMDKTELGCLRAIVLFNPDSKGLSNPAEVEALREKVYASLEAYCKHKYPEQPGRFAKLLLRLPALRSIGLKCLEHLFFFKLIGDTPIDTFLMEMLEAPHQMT

[23] = biological target: Mitogen-activated protein kinase 14 (Homo sapiens, UniProt Q16539); experiment: Inhibition of recombinant full length GST-tagged human inactive MAPK14 expressed in Escherichia coli using Ser/Thr 04 as substrate after 1 hr in presence of ATP by Z'LYTE assay
[24] = biological target: Serine/threonine-protein kinase SIK2 (Homo sapiens, UniProt Q9H0K1); experiment: Inhibition of recombinant full length GST-tagged human SNF1LK2 expressed in baculovirus expression system using Ser/Thr 25 as substrate in presence of ATP after 1 hr by Z'LYTE assay
Chain of Serine/threonine-protein kinase SIK2 (Q9H0K1 whole entry): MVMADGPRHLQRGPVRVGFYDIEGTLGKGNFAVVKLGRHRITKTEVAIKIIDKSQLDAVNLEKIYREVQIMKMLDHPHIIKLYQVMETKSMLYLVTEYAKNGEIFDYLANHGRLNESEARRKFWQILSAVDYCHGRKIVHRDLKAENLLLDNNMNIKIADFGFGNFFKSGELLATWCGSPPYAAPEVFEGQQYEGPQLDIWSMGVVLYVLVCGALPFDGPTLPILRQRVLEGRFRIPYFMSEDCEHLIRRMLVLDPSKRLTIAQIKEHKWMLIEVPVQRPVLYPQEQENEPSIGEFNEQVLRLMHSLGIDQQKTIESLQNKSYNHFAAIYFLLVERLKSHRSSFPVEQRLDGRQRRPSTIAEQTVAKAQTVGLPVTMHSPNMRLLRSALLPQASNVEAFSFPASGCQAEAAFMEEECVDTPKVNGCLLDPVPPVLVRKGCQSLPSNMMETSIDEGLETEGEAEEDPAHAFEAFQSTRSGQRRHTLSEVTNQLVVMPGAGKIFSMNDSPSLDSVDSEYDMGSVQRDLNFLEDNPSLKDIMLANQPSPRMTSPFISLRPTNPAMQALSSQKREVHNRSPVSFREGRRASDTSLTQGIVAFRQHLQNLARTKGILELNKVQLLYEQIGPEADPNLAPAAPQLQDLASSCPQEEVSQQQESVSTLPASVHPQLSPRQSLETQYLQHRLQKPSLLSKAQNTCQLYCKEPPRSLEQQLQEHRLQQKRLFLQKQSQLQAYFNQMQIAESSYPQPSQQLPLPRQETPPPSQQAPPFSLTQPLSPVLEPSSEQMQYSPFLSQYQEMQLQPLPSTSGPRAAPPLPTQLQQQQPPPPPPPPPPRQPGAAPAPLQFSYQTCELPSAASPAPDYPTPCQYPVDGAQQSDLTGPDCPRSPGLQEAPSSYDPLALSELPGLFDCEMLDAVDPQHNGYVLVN

[25] = biological target: Calcitonin gene-related peptide type 1 receptor (Homo sapiens) (UniProt Q16602); experiment: Inhibition of human AM1 receptor at 10 uM relative to control
[26] = biological target: Serine/threonine-protein kinase MARK2 (Homo sapiens, UniProt Q7KZI7); experiment: Inhibition of recombinant full length human GST-tagged MARK2 expressed in baculovirus expression system using serine/threonine-21 peptide as substrate incubated for 60 mins in presence of ATP by Z'-LYTE assay
Chain of Serine/threonine-protein kinase MARK2 (Q7KZI7 whole entry): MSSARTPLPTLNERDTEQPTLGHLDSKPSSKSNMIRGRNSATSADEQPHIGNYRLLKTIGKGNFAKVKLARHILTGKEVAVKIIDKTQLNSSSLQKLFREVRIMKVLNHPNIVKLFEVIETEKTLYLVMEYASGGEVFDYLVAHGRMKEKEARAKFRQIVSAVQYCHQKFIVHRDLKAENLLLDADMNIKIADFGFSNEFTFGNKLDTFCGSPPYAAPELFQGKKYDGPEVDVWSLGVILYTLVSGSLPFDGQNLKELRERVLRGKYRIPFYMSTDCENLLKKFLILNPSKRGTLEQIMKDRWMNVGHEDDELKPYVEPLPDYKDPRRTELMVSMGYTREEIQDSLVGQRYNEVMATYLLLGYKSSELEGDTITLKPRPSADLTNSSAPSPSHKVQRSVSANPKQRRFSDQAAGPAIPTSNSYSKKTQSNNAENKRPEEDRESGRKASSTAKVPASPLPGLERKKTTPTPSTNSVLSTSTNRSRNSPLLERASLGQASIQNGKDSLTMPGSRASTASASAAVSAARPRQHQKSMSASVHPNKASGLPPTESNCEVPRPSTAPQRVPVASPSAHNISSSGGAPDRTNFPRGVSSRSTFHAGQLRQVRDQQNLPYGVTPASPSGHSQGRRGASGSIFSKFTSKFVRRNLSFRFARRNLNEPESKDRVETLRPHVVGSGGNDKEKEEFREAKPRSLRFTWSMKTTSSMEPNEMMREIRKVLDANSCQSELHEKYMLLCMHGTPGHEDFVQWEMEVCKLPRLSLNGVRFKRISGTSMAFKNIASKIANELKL

Compound: C[C@@H]1C[C@H]1C(=O)N1CCN(c2cnc(C#N)c(-c3cnn(C)c3)n2)C[C@H]1C
- pIC50 [1]: < 4.00
- inhibition [2]: -1%
- pIC50 [3]: < 4.00
- pIC50 [4]: < 4.00
- pIC50 [5]: < 4.00
- fraction unbound [6]: 0.152
- pIC50 [7]: 6.02
- logD [8]: 1.6
- inhibition [9]: 1%
- inhibition [10]: 11%
- pIC50 [11]: < 4.00
- pIC50 [12]: < 4.00
- pIC50 [13]: < 4.00
- pIC50 [14]: < 4.00
- pIC50 [15]: < 4.00
- pIC50 [16]: < 4.00
- inhibition [17]: -2%
- pIC50 [18]: < 4.00
- pIC50 [19]: < 4.00
- inhibition [20]: -5%
- pIC50 [21]: < 4.00
- inhibition [22]: 8%
- pIC50 [23]: < 4.00
- pIC50 [24]: < 4.00
- inhibition [25]: 10%
- pIC50 [26]: < 4.00
